30 compounds from PubChem BioAssay AID179 (DTP/NCI, 2004) can be followed below.

The assay concerns CEM cells HIV-1 protection, formazan growth assay. As to the kind of experiment: NCI AIDS Antiviral Assay. As to conditions: for IC50: measured here: growth of uninfected CEM cells. The method in brief:
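Soluble formazan readout of cell growth; CEM cells ± HIV-1; 5 drug concs. ≥50% protection → retest; ≥50% again = moderately active; reproducible 100% = confirmed active.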

Activity calls are given as the source filed them.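 How the source made its calls: active means compounds giving half or more protection of infected cells from virus-caused growth loss, again on retest; inactive means the rest.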

What is called EC50 is the midpoint of the concentration-response curve. Usually IC50 stands for the concentration that gives 50% inhibition. The low end stands for inhibition by little substance, the high end for a need for much substance. For the compound `CCOC1(NC(=O)N(C)C)C2CCCC21` (stereo not given), the EC50 was over 200 µM and the IC50 is over 200 µM.

For `c1ccc(-c2nnc(-c3nsc4ccccc34)o2)cc1`, the EC50 is over 18.6 µM and the IC50 was over 18.6 µM.

Turning to `COC1CCC(OS(C)(=O)=O)C(CO)O1` (stereo not given), the result was inactive.

For the compound `CCCCCCCC/C=C\CCCCCCCCN=Cc1c(O)c(O)c(C(C)C)c2cc(C)c(-c3c(C)cc4c(C(C)C)c(O)c(O)c(C=NCCCCCCCC/C=C\CCCCCCCC)c4c3O)c(O)c12`, the result was inactive.

Regarding `CNC(=O)C1(C#N)C(c2ccccc2)C(C#N)(C(=O)NC)C1c1ccccc1` (stereo not given), the EC50 was over 200 µM and the IC50 was 166 µM.

Consider `CC(=O)N1CCN(CCCCN2c3ccccc3Sc3cc(N=[N+]=[N-])ccc32)CC1`, for which the EC50 was over 200 µM and the half-inhibitory concentration (IC50) was determined as 6.61 µM.

For the compound `O=c1/c(=C/c2ccccc2F)sc2nc3ccccc3n12`, the EC50 was over 1.82 µM and the IC50 was over 1.82 µM.

On to `O=C(O)CN1C(=O)c2cccc3cccc(c23)C1=O`, for which the EC50 was over 200 µM and the IC50 was over 200 µM.

With `O=C1NC2C=CN(Cc3ccccc3)C=C2C(=O)N2CCCC12` (stereo not given), the EC50 is over 6.46 µM and the IC50 was over 6.46 µM.

As to `CCOC(=O)CC(C)C1(C(=O)OCC)CCCCC1=O` (stereo not given), the EC50 is over 331 µM and the IC50 is over 331 µM.

As for `CC(=O)N1c2ccccc2N(C(C)=O)C1c1ccc(C2N(C(C)=O)c3ccccc3N2C(C)=O)[nH]1`, the result was inactive.

In the case of `C1CC2=C(C1)C1=S(S2)SC2=C1CCC2`, the result was inactive.

For `Cc1ccccc1Nc1nc(-c2ccccc2)nc(N)c1N=O`, the EC50 is over 200 µM and the half-inhibitory concentration (IC50) came to 21.9 µM.

Regarding `CS(=O)(=O)c1ccc(NNc2cc(=O)[nH]c(=O)[nH]2)cc1`, the EC50 was over 200 µM and the IC50 came to 70.8 µM.

Take `Cc1c(S(=O)(=O)c2ccccc2)c(N)n(CCN(C)C)c1C`: the EC50 is over 200 µM and the 50% inhibitory concentration (IC50) was determined as 44.7 µM.

Regarding `CN(CCS(=O)(=O)N1C(=O)C2CCCN2C(=O)[C@@H]1Cc1ccccc1)C(=O)OCc1ccccc1` (stereo not given in full), the EC50 is over 50.1 µM and the IC50 was over 50.1 µM.

As for `O=C1CCCC1(CCSc1ccccc1)C(CCCl)Sc1ccccc1` (stereo not given), the EC50 was over 8.91 µM and the IC50 is over 8.91 µM.

On to `CCOC(=O)NCC(=O)NCC(=O)NCC(N)=O`, for which the EC50 was over 200 µM and the IC50 was over 200 µM.

In the case of `S=C=NC/C(Cl)=C/Cl`, the EC50 was over 200 µM and the IC50 stood at 129 µM.

Regarding `Brc1cccc(C=NC23CC4CC(CC(C4)C2)C3)c1`, the EC50 is over 16.2 µM and the IC50 was over 16.2 µM.

As to `CCOC(=O)Cc1nc2sc(C)c(-c3ccccc3)c2c(=O)[nH]1`, the EC50 is over 110 µM and the IC50 was over 110 µM.

Turning to `CSc1nc(NC2OC(CO)C(O)C(O)C2O)cc(=O)[nH]1` (stereo not given), the outcome was inactive.

Take `COC(=O)C(=O)C(C(=O)C(=O)Nc1cccc(C(C)=O)c1)c1nc2ccccc2[nH]c1=O` (stereo not given): the EC50 was over 575 µM and the IC50 was 302 µM.

Turning to `CCOc1ncn(-c2ccc(NC(=S)NC3OC(CO)C(O)C(O)C3O)cc2)n1` (stereo not given), the EC50 was over 200 µM and the IC50 was over 200 µM.

For the compound `COc1ccc(OC)c(/C=N/N=C(\N)NO)c1`, the EC50 is over 603 µM and the IC50 is 115 µM.

On to `O=C1CC2OCC=C3CN4CCC5(C(=O)O)C(N1)C2C3CC45` (stereo not given), for which the EC50 was over 813 µM and the IC50 is over 813 µM.

In the case of `COC(=O)Cc1cc(O)c(C/C=C(\C)CC/C=C(\C)C(O)C(=O)C=C(C)C)cc1O` (stereo not given), the EC50 is over 15.8 µM and the half-maximal inhibitory concentration (IC50) was 9.33 µM.

On to `O=C1c2scc(-c3ccc(Cl)cc3)c2-n2cccc21`, for which the EC50 was over 200 µM and the IC50 is over 200 µM.

On to `O=C(O)c1ccc(S(=O)(=O)c2ccc(C(=O)O)c(C(=O)O)c2)cc1C(=O)O`, for which the EC50 is over 200 µM and the IC50 came to 191 µM.

Take `O=[N+]([O-])c1cc(Cl)ccc1Sc1ccc(Cl)cc1[N+](=O)[O-]`: the EC50 was over 129 µM and the IC50 was over 129 µM.
